The source of these data is patent US9956202B2, “Use of indolyl and indolinyl hydroxamates for treating neurodegenerative disorders or cognitive decicits” (Taipei Medical University, priority 2013, dated 2018).

One assay concerns C57BL/6J mice. Put plainly: Contextual fear conditioning (freezing behavioral test) in normal mice. The note with it: normal C57BL/6J mice; 50, 100, 200 mg/kg intraperitoneally once before training; test 24 h after training; dose dependent; *p<0.05, **p<0.01. The assay is classed as in vivo. An excerpt:
(§1) Tg2576 transgenic mice carry a transgene coding for the 695-amino acid isoform of human APP derived from a large Swedish family with early-onset Alzheimer's disease (AD). These mice express high concentrations of the mutant Aβ, develop significant number of amyloid plaques and display memory deficits. Tg2576 mice were purchased from The Jackson laboratory (Maine, US). C57BL/6J mice 6-8 week of age were purchased from BioLASCO Taiwan Co., Ltd for dose-dependent effect study. The animals were housed 5 per cage in a temperature (21±1° C.)—and humidity (70±5%)—controlled room, under a 12 h-12 h light-dark cycle (lights on at 6:00 a.m.). Animal had free access to food and water during the experiment. Behavior testing was carried out in the light phase of the cycle. All animal experiments were carried out in accordance with the guidelines established by the Institutional Animal Care and Utilization Committee of the Taipei Medical University (Taipei, Taiwan, R.O.C.).
(§2) Compound 1 was dissolved in 5% ethanol, 35% polyethylene glycol and 60% normal saline at a concentration of 15 mg/ml. […]
(§3) All mice were transported to the laboratory for 2 hour before training to erase unnecessary stress. […] The data was recorded and calculated by its system software (TruScan 2.02).

The subject of a further assay is Tg2576 mice. Put plainly: Contextual fear conditioning (CS-US pairing) in dementia animal model. It is filed as in vivo. The following applies: orally 50 mg/kg per day for 20 days, 6-month old p=0.0264, 12-month old p=0.0028 vs untreated of same age.
Description: (§4) Tg2576 transgenic mice carry a transgene coding for the 695-amino acid isoform of human APP derived from a large Swedish family with early-onset Alzheimer's disease (AD). These mice express high concentrations of the mutant Aβ, develop significant number of amyloid plaques and display memory deficits.
as §1, with “All animal experiments were carried out in accordance with the guidelines established by the Institutional Animal Care and Utilization Committee of the Taipei Medical University (Taipei, Taiwan, R.O.C.).” left out
as §3

Assay [1] relates to synaptic plasticity proteins. Put plainly: Western blotting of synaptic plasticity proteins in hippocampus of Tg2576 mice. The assay is classed as in vivo. The following applies: oral gavage 50 mg/kg per day for 20 days. How it is done:
as §4
Compound 1 was dissolved in 5% ethanol, 35% polyethylene glycol and 60% normal saline at a concentration of 15 mg/ml. C57BL/6J Mice were treated with Compound 1 (50, 100, 200 mg/kg, intraperitoneally) or vehicle once before contexual fear conditioning training. Then, Tg2576 transgenic mice were treated with Compound 1 orally (50 mg/kg per day for 20 days) or vehicle at the ages of 5 months and 11 months.
Animals were deep anesthetized with choral hydrate (400 mg/kg) and perfused with both normal saline and 4% paraformaldehyde. The hippocampus were collected and lysed in lysis buffer (Lysis-M reagent, Roche). The lysates were incubated for 5 min on ice and centrifuged for 20 min at 14,000 r.p.m. and 4° C. The supernatant was collected as cytosolic protein extract. Protein concentrations were measured and normalized using Bradford protein assay kit (Pierce). After normalization, 30 μg of protein was subjected to western blotting. Immunoreactivity was examined by enhanced chemiluminescence (Millipore).

In assay [2] the test system is Sprague-Dawley rats with spinal cord injury. Put plainly: BBB Locomotor Rating Scale after spinal cord injury. It is filed as in vivo. The note with it: intravenous 30 mg/Kg per day for 7 days, 7 days after spinal cord injury, vs vehicle, p=0.0147. The procedure: (§5) In this example, effects of compounds of this invention were verified using spinal cord injury animal model.
Male Sprague-Dawley rats (Academia Sinica, Taiwan), weighing 280-330 g, were kept two per cage for at least five days after their arrival. The rats had access to food and water at libitum and were housed within a room with a 12:12 h dark-light cycle. This study was performed in accordance with the guidelines provided by the Experimental Animal Laboratory and approved by the Animal Care and Use Committee in Taipei Medical University.
(§6) The spinal cord injury was produced by using the NYU (New York University) impactor device. The spinal cord contusion was performed under deep anesthesia with Zoleti150 (40 mg/kg i.p.) After a dorsal laminectomy was performed on T9, the spinal cord segments T9 were exposed. Then, the surgery of spinal cord injury was produced by dropping the 10 gram rod from a height of 50 mm.
Behavioral tests and analyses were performed by observers blinded to the treatments. Locomotor function was observed and recorded using the Basso, Beattie, and Bresnahan (BBB) Locomotor Rating Scale. On days 1, 3, and 7 post injury, hindlimb motor function was assessed using the open-field BBB score locomotor test.
as §2

In assay [3] the test system is NeuN-positive neurons of spinal cord. Put plainly: NeuN immunohistochemistry after spinal cord injury. It is filed as in vivo. The note with it: rats after spinal cord injury, 30 mg/Kg per day for 7 days, vs vehicle. How it is done:
as §5, §6, §2
(§7) On 7th day after hemisection spinal cord injury, animals were deeply anesthetized by isoflurane and perfused through the left ventricle with phosphate-buffered saline (PBS), followed by cold 4% paraformaldehyde in 0.15M sodium phosphate buffer, pH 7.4. […] Furthermore, apoptosis after spinal cord injury was detected by terminal deoxynucleotidyl transferase-mediated deoxyuridine triphosphate nick-end labeling (TUNEL) using the apoptosis detection kit (Oncogene Research Products, Cambridge, Mass.). […] Only cells with clearly visible stain were counted. All data are presented as means±SEM of five consecutive cell quantifications.

Assay [4] relates to apoptotic cells of spinal cord. Put plainly: TUNEL staining of apoptosis after spinal cord injury. It is filed as in vivo. The following applies: rats after spinal cord injury, 30 mg/Kg per day for 7 days, vs vehicle. How it is done: as §5, §6, §2, §7
Assay [5] has as its system histone 3 and 4 acetylation, p21 and phospho-ERK. Put plainly: Western blot of histone 3 and 4 acetylation, p21 and phospho-ERK after spinal cord injury. The assay is classed as in vivo, rats. The following applies: 100 mg/kg intravenous injection, vs vehicle control. The procedure:
as §5, §6, §2

Consider `O=C(/C=C/c1ccc2c(ccn2S(=O)(=O)c2ccccc2)c1)NO` [compound 1, 3-(1-benzensulfonyl-1H-indol-5-yl)-N-hydroxy-acrylamide], for which the “strength of tone-shock pairing memory (freezing behavioral test)” value in the assay with C57BL/6J mice was “increased significantly”. Further, the “tone-shock pairing memory (contextual fear conditioning)” value in the assay with Tg2576 mice is on record as “enhanced”. In addition, in assay [1] (###p=0.0008), the “acetyl-Histone H4 expression in hippocampus” value was “elevated”. In assay [1] (#p=0.0145), the “p21 expression in hippocampus” value is “elevated”. In addition, the “NR2a protein expression in hippocampus” value in assay [1] (#p=0.0231) is “elevated”. Besides, the “pERK expression in hippocampus” value in assay [1] (#p=0.0428) is recorded as “elevated”. Besides, in assay [1] (#p=0.0492), the “NR2b protein expression in hippocampus” value was “elevated”. Also, in assay [2], the “BBB score (motor function)” value was “significant recovery”. Moreover, in assay [3] (p<0.0001), the “neuron cells percentage (NeuN)” value is given as “significantly preserved”. For the same compound, the “neuron cells number (NeuN)” value in assay [3] (p=0.0151) is on record as “significantly preserved”. Further, the “apoptotic cells number (TUNEL)” value in assay [4] (p=0.0015) is “significantly reduced”. For the same compound, the “apoptotic cells percentage (TUNEL)” value in assay [4] (p=0.0098) is given as “significantly reduced”. The “expression of histone 4 acetylation (ac-H4)” value in assay [5] (p=0.0023) was “Significant increase”. Also, in assay [5] (p=0.0043), the “expression of p21” value was “Significant increase”. Besides, the “expression of phospho-ERK (p-ERK)” value in assay [5] (p=0.0311) is on record as “Significant increase”. Further, the “expression of histone 3 acetylation (ac-H3)” value in assay [5] (p=0.0451) is “Significant increase”.
